Experimental data taken from US11510980B2, “Brartemicin analogues” (VICTORIA LINK LTD, priority 2017, dated 2022).

Legend:
wild-type GM-CSF BMDMs = assay: Cytokine/chemokine production by wild-type GM-CSF BMDMs on ligand-coated plates; type: cell-based, C57BL/6 mice; conditions: for MIP-2 production / IL-1β production / IL-6 production / TNF production: wild-type BMDMs, coated plates 0.1 or 1 nmol/well, 24 hours, ELISA
Procedure: (§1) Preparation of ligand-coated plates: Brartemicin analogues 9a-9i, TDM (Carbosynth, Sigma Aldrich), and TDB^14 were dissolved in CHCl3:MeOH (2:1, 1 mM), diluted in isopropanol ([…]) and added to 96-well plates (20 μL/well). The solvents were evaporated and the coated plates were used immediately.
Murine bone-marrow derived macrophages: For the preparation of murine bone-marrow derived macrophages, bone marrow cells were collected from the tibias and femurs of C57BL/6 mice and cultured (250,000 cells/mL) in complete RPMI media [RPMI-1640 (Gibco) with 10% heat inactivated fetal bovine serum (Gibco), 100 unit/mL penicillin-streptomycin (Gibco) and 2 mM Glutamax (Gibco)] supplemented with 50 ng/mL GM-CSF (clone X63/GM-CSF murine cells). Cells were incubated at 37° C. (5% CO2) for 8 days (cells fed by replacing half the media on days 3 and 6). On day 8, all media was removed and the cells were washed with Dulbecco's Phosphate-Buffered Saline (DPBS, Gibco) to remove any loosely-adherent cells. The BMDMs were harvested with StemPro Acutase (1 mL/well, 15 minutes at room temperature, Gibco) and seeded onto a pre-coated 96-well plate. The supernatant was collected and analysed for cytokine/chemokine production after 24 hours.
Cytokine analysis: IL-1β, IFN-γ, IL-6, TNF-α (BD Biosciences), IL-17, and MIP-2 (R&D) levels were determined via sandwich ELISA according to the manufacturer's instructions.
First, the ability of the compounds to activate GM-CSF BMDMs was determined by monitoring the secretion of the inflammatory cytokines TNF, IL-6, and IL-1β and the chemokine, MIP-2, in a ligand-coated plate assay (FIG. 2).
To gain insight into the capacity of the 2G-series of brartemicin analogues to induce an inflammatory immune response, the analogues were then screened for their ability to activate WT and Mincle^−/− BMDMs, with cellular activation being determined by the measurement of IL-1B using ELISA (FIG. 6).

mMincle+FcRγ = biological target: T1, mMincle+FcRγ (Mus musculus, UniProt Q9R0Q8); assay: 2B4-NFAT-GFP reporter cells expressing mMincle+FcRγ; type: cell-based, murine; conditions: ligand-coated plates 0.01, 0.1 or 1 nmol/well, 18 hours
T1 construct: expressed in transfected cells; host or cells: 2B4-NFAT-GFP reporter cells
T1 sequence (Q9R0Q8 1-214): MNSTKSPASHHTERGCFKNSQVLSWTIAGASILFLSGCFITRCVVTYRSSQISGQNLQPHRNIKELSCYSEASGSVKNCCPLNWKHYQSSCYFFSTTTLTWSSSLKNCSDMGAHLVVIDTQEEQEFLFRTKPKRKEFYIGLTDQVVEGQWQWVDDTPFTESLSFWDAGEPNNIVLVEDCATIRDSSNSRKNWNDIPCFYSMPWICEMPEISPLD
T1 sequence (P20491 19-86 partner): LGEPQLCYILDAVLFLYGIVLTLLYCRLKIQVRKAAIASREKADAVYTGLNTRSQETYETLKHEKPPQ
Procedure: as §1
(§2) 2B4-NFAT-GFP reporter cells: 2B4-NFAT-GFP reporter cells expressing mMincle+FcRγ, hMincle+FcRγ, or FcRγ only have been previously described. […] The reporter cells were harvested, stained with propidium iodide, and analysed for NFAT-GFP expression using flow cytometry (FACS Calibur).
(§3) To determine whether the Mincle binding observed in Example 1 correlated with cellular activation, nuclear factor of activated T cells (NFAT)-green fluorescent protein (GFP) reporter cells expressing mMincle or hMincle coupled to FcRγ were stimulated using plates coated with TDM, TDB, brartemicin (9i), or analogues 9a-9h.
(§4) Activation of the reporter cells was measured through the production of GFP, which was monitored by flow cytometry (FIGS. 1b and 3c).
(§5) With the compounds 43a-h in hand, the ability of these analogues to bind and signal through Mincle was assessed (FIG. 5). Accordingly, NFAT-GFP reporter cells expressing mMincle+FcRγ, hMincle+FcRγ, or FcRγ-only were stimulated with the 2G-brartemicin analogues 43a-h, TDB, iPrOH, or the p-OC18H37 substituted analogue, 9f. Reporter cell activation was measured by the production of NFAT-GFP, which was analysed by flow cytometry.

mMincle-Ig = biological target: T2, mMincle-Ig (Mus musculus, UniProt Q9R0Q8); assay: In vitro Mincle binding assay (ELISA) with mMincle-Ig fusion protein; design: species or system murine; conditions: plate-coated ligand 0.1 nmol/well
T2 construct: using soluble Mincle-Ig fusion-proteins; made in house
T2 sequence (Q9R0Q8 46-214 limits assumed): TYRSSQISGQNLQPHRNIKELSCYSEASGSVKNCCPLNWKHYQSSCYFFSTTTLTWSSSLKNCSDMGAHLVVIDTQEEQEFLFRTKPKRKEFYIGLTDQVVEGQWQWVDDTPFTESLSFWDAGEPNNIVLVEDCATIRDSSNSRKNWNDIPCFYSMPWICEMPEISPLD
Procedure: as §1
(§6) In vitro Mincle binding assay: The preparation of mMincle- and hMincle-Ig fusion proteins have been previously described. Plate-coated glycolipids 9a-i, TDB, and TDM were incubated with hMincle-Ig, mMincle-Ig, or hIgG1-Fc (Ig) [3 μg/mL in binding buffer (20 mM Tris-HCl, 150 mM NaCl, 1 mM CaCl2), 2 mM MgCl2, pH 7.0)]. Detection of bound protein was achieved via incubation with anti-hIgG-HRP followed by the addition of a colorimetric substrate and measurement of OD at 450 nm. Background was accounted for by subtracting the hIgG1-Fc OD450 values from fusion protein OD450 values
(§7) The synthesised brartemicin analogues prepared in Example 1 were first tested for their ability to bind to both human and murine Mincle in an enzyme-linked immunosorbent assay (ELISA) using soluble Mincle-Ig fusion-proteins (FIG. 1a).

hMincle+FcRγ = biological target: T3, hMincle+FcRγ (Homo sapiens, UniProt Q9ULY5); assay: 2B4-NFAT-GFP reporter cells expressing hMincle+FcRγ; type: cell-based; conditions: ligand-coated plates 0.01, 0.1 or 1 nmol/well, 18 hours
T3 construct: expressed in transfected cells; host or cells: 2B4-NFAT-GFP reporter cells
T3 sequence (Q9ULY5 1-219): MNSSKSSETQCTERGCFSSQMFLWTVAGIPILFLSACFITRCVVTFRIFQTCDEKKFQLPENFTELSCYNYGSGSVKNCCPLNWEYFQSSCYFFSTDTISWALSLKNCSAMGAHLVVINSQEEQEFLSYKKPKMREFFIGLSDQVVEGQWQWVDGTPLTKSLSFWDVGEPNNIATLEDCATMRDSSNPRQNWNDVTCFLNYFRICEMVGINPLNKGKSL
Procedure: as §1, §2, §3, §4, §5

hMincle-Ig = biological target: T4, hMincle-Ig (Homo sapiens, UniProt Q9ULY5); assay: In vitro Mincle binding assay (ELISA) with hMincle-Ig fusion protein; conditions: plate-coated ligand 0.1 nmol/well
T4 construct: using soluble Mincle-Ig fusion-proteins; made in house
T4 sequence (Q9ULY5 41-219 limits assumed): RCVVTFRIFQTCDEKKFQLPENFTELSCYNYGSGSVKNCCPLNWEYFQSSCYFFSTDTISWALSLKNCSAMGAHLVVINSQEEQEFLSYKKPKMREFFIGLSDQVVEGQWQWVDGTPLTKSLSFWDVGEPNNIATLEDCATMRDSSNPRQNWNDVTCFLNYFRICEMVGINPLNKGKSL
Procedure: as §1, §6, §7

| Compound | MIP-2 production (wild-type GM-CSF BMDMs) | activation of mMincle NFAT-GFP reporter cells (GFP by flow cytometry) (mMincle+FcRγ) | binding to mMincle-Ig (ELISA, OD at 450 nm) (mMincle-Ig) | activation of hMincle NFAT-GFP reporter cells (GFP by flow cytometry) (hMincle+FcRγ) | binding to hMincle-Ig (ELISA, OD at 450 nm) (hMincle-Ig) | IL-1β production (wild-type GM-CSF BMDMs) | IL-6 production (wild-type GM-CSF BMDMs) | TNF production (wild-type GM-CSF BMDMs) | activation of BMDMs (wild-type GM-CSF BMDMs) | activation of mMincle NFAT-GFP reporter cells (GFP by flow cytometry) (mMincle+FcRγ; listed as Brartemicin) |
| --- | --- | --- | --- | --- | --- | --- | --- | --- | --- | --- |
| CCCCOc1ccc(C(=O)OCC2O[C@H](O[C@H]3OC(COC(=O)c4ccc(OCCCC)cc4O)[C@@H](O)C(O)C3O)C(O)C(O)[C@@H]2O)c(O)c1 (stereo partly drawn) [9c, 6,6′-Di-O-(2-hydroxy-4-butoxybenzoyl)-α,α′-D-trehalose] | induced MIP-2 | able to activate mMincle and hMincle only at high ligand concentrations | did not bind hMincle- or mMincle-Ig to any great extent | able to activate mMincle and hMincle only at high ligand concentrations | did not bind hMincle- or mMincle-Ig to any great extent | – | – | – | – | – |
| CCCCCCCOc1cc(C)c(C(=O)OCC2O[C@H](O[C@H]3OC(COC(=O)c4c(C)cc(OCCCCCCC)cc4O)[C@@H](O)C(O)C3O)C(O)C(O)[C@@H]2O)c(O)c1 (stereo partly drawn) [9h, 6,6′-Di-O-(4-heptyloxy-2-hydroxy-6-methylbenzoyl)-α,α′-D-trehalose] | significant production | strongly activated | good binding | strongly activated | good binding | significant production | significant production | significant production | – | – |
| Cc1cc(O)cc(O)c1C(=O)OC[C@H]1O[C@H](O[C@H]2O[C@H](COC(=O)c3c(C)cc(O)cc3O)[C@@H](O)[C@H](O)[C@H]2O)[C@H](O)[C@@H](O)[C@@H]1O [9i, Brartemicin] | did not induce the production of any of the cytokines measured | did not significantly activate mMincle | did not bind hMincle- or mMincle-Ig to any great extent | not to activate | did not bind hMincle- or mMincle-Ig to any great extent | did not induce the production of any of the cytokines measured | did not induce the production of any of the cytokines measured | did not induce the production of any of the cytokines measured | not to activate | not to activate |
